Laboratory results published in US10669272B2, “Substituted naphthyridinone compounds useful as T cell activators” (BRISTOL-MYERS SQUIBB COMPANY, priority 2018, dated 2020).
Like-named read-outs stand apart in the source and are kept apart here.

Assays:
human DGKα = biological target: T1, human DGKα (Homo sapiens, UniProt P23743); assay: DGKα LIPGLO assay (extruded liposome substrate), in vitro DGK inhibition; assay type: biochemical; details: read-out: DGKa LIPGLO IC50
T1 construct: TVMV protease cleavage site (C); Hexa-His (C); made in house; host or cells: Sf9 insect cells (baculovirus, Bac-to-Bac)
T1 sequence (P23743 with tags, fused parts or gaps): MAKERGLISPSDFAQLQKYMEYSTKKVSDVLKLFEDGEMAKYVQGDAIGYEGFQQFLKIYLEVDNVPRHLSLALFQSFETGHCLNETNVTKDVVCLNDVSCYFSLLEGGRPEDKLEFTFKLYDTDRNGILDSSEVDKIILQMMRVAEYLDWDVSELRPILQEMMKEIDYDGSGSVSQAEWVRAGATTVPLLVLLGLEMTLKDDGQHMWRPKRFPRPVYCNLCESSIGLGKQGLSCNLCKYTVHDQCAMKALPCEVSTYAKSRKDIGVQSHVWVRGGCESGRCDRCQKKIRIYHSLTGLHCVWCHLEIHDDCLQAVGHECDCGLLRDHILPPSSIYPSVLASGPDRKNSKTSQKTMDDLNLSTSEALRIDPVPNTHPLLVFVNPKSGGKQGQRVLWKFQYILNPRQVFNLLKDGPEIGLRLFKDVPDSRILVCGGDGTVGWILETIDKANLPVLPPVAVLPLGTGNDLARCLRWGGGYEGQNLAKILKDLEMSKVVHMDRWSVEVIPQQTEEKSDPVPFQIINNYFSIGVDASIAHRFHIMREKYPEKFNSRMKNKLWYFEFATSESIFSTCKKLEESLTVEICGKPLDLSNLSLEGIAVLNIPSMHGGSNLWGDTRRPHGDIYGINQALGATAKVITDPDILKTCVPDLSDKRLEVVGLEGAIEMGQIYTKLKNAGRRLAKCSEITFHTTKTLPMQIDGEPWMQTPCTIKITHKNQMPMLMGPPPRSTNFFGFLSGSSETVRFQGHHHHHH

Human venous whole blood = assay: Human whole blood IFN-γ assay; assay type: cell-based; details: human whole blood, read-out: INFg Whole Blood Normalized Agonist EC50;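 also: blood from healthy donors exposed to compound for 1 h before stimulation with anti-CD3 and anti-CD28 at 1 µg/mL each, IFN-γ quantified in supernatant by AlphaLISA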
human DGKζ = biological target: T2, human DGKζ (Homo sapiens, UniProt Q13574); assay: DGKζ LIPGLO assay (extruded liposome substrate), in vitro DGK inhibition; assay type: biochemical; details: read-out: DGKz LIPGLO IC50
T2 construct: TVMV protease cleavage site (C); Hexa-His (C); made in house; host or cells: Sf9 insect cells (baculovirus, Bac-to-Bac)
T2 sequence (Q13574 with tags, fused parts or gaps isoform Q13574-4): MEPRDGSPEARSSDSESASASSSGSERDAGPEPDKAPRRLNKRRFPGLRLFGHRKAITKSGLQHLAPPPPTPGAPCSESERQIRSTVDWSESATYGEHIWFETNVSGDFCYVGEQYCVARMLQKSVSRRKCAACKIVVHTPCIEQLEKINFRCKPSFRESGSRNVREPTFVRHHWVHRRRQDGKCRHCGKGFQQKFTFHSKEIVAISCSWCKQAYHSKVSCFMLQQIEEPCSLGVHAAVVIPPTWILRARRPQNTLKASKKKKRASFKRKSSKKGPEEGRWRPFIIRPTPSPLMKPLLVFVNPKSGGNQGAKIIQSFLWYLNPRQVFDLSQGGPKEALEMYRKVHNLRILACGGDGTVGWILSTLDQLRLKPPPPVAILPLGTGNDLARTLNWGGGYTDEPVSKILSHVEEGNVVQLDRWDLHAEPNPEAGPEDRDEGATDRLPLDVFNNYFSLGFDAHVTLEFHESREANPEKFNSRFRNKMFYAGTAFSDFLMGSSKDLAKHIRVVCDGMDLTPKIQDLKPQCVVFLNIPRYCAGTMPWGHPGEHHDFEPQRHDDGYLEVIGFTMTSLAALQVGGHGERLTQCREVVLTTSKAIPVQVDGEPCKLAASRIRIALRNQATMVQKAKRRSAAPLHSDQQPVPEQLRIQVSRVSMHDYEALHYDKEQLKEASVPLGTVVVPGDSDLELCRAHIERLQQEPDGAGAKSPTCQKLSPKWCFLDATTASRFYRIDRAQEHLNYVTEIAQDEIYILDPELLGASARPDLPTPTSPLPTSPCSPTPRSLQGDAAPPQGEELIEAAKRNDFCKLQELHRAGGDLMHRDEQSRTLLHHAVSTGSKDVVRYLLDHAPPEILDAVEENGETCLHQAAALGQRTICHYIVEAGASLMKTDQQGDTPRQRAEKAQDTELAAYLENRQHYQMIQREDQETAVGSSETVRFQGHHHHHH

[1] = Homo sapiens, 24 h, normalized to 3 μM reference compound with anti-CD3 plus anti-CD28 as 100% activation
[2] = Homo sapiens, 24 h, anti-CD3 plus anti-CD28, 24 hours, 3 μM reference compound = 100% activation
[3] = normalized to 3 μM reference compound with anti-CD3 plus anti-CD28 as 100% activation

Row | IC50 (human DGKα; liposome (LIPGLO) assay) [nM] | IC50 (human DGKζ; liposome (LIPGLO) assay) [nM] | IC50 (human DGKα; DGKα liposome (LIPGLO) assay) [nM] | IC50 (human DGKζ; DGKζ liposome (LIPGLO) assay) [nM] | Compound | EC50 (Human venous whole blood; [1]) [nM] | EC50 (Human venous whole blood; [2]) [nM] | EC50 (Human venous whole blood; [3]) [nM]
1 | 1800 | 370 |  |  | COC(=O)NC[C@@H]1CN(c2cc(=O)n(C)c3ccc(C#N)nc23)[C@@H](C)CN1C(c1ccc(F)cc1)c1ccc(F)cc1 [Example 1166, methyl (((2R,5S)-1-(bis(4-fluorophenyl)methyl)-4-(6-cyano-1-methyl-2-oxo-1,2-dihydro-1,5-naphthyridin-4-yl)-5-methylpiperazin-2-yl)methyl)carbamate] | 350 |  | 
2 |  |  | 4600 | 2400 | CCc1ccc(C(c2ccc(F)cc2)N2CCN(c3c(C#N)c(=O)n(C)c4ccc(C#N)nc34)C[C@H]2C)cc1 (stereo partly drawn) [Example 884] |  | 2200 | 
3 | 260 | 230 |  |  | CCC(c1ccc(OCCC2CC2)cc1)N1C[C@H](C)N(c2cc(=O)n(C)c3ccc(C#N)nc23)C[C@H]1C (single isomer, unassigned) [Example 1446] |  |  | 230
4 | 300 | 49 |  |  | COC[C@@H]1CN(c2cc(=O)n(C)c3ccc(C#N)nc23)[C@@H](C)CN1C(c1ccc(F)cc1)c1ccc(C(F)(F)F)cn1 (stereo partly drawn) [Example 1401] | 470 |  | 
5 | 97 | 11 |  |  | CC[C@@H]1CN(c2cc(=O)n(C)c3ccc(C#N)nc23)[C@@H](C)CN1C(C)c1ccc(OC)cc1 (single isomer, unassigned) [Example 1350] |  |  | 30
6 | 41 | 75 |  |  | CC[C@@H]1CN(c2cc(=O)n(C)c3ccc(C#N)nc23)[C@@H](C)CN1C(C)c1ccc(C#N)cc1 (single isomer, unassigned) [Example 1345] |  |  | 480
7 | 56 | 240 |  |  | CCC(c1ccc(OC(C)(C)C)cc1)N1C[C@H](C)N(c2cc(=O)n(C)c3ccc(C#N)nc23)C[C@H]1C (single isomer, unassigned) [Example 1443] | 810 |  | 
8 | 2600 | 12000 |  |  | CC(c1ccc(OC(F)(F)F)cc1)N1C[C@H](C)N(c2cc(=O)n(C)c3ccc(C#N)nc23)C[C@H]1CO (single isomer, unassigned) [Example 1387] |  |  | 20000
9 | 170000 | 43000 |  |  | CC(c1ccc(P(C)(C)=O)cc1)N1C[C@H](C)N(c2cc(=O)n(C)c3ccc(C#N)nc23)C[C@H]1C (stereo partly drawn) [Example 1290] | 20000 |  | 
10 | 450 | 2100 |  |  | C[C@@H]1CN(c2c(C#N)c(=O)n(C)c3ccc(C#N)nc23)CCN1C(c1ccc(F)cc1)c1nc(C2CC2)no1 (single isomer, unassigned) [Example 1029] |  |  | 3600
11 | 34000 | 1200 |  |  | C[C@@H]1CN(Cc2c(F)cc(F)cc2F)[C@@H](CO)CN1c1cc(=O)n(C)c2ccc(C#N)nc12 [Example 1182] | 20000 |  | 
12 |  |  | 230000 | 100000 | C[C@@H]1CN(c2c(C#N)c(=O)n(C)c3ccc(C#N)nc23)[C@@H](C)CN1C(c1ccc(F)cc1)c1cncn1C (stereo partly drawn) [Example 848] |  | 20000 | 
13 | 310 | 860 |  |  | CC[C@H]1CN(C(C)c2ccc(OC(F)F)cc2)[C@H](C)CN1c1cc(=O)n(C)c2ccc(C#N)nc12 (single isomer, unassigned) [Example 1145] |  |  | 3300
14 | 9400 | 1100 |  |  | CC(c1nc(C2CC2)no1)N1C[C@H](C)N(c2c(C#N)c(=O)n(C)c3ccc(C#N)nc23)C[C@H]1C (single isomer, unassigned) [Example 1306] | 2900 |  | 
15 | 39000 | 6200 |  |  | C[C@H]1CN(C(c2ccc(F)cc2)c2ccc(F)cc2)[C@H](CN(C)C)CN1c1cc(=O)n(C)c2ccc(C#N)nc12 [Example 1169] | 2300 |  | 
16 | 570 | 2000 |  |  | C[C@@H]1CN(c2cc(=O)n(C)c3ccc(C#N)nc23)[C@@H](C)CN1C(c1ccc(F)c(F)c1)c1ccccn1 (mixture of isomers) [Example 366, 8-((2S,5R)-4-((3,4-difluorophenyl)(pyridin-2-yl)methyl)-2,5-dimethylpiperazin-1-yl)-5-methyl-6-oxo-5,6-dihydro-1,5-naphthyridine-2-carbonitrile] | 490 |  | 
